The results in this text go back to PMC12013712, “The protein kinases KIPK and KIPK-LIKE1 suppress overbending during negative hypocotyl gravitropic growth in Arabidopsis” (The Plant Cell, 2025).

The structures appear in SMILES notation.

The target in assay [1] is T1, KIPKL1 (Arabidopsis thaliana, UniProt Q9SJM3).
T1 construct: gene KIPK2; GST fusion (PIP strips) or MBP fusion (phosphorylation), tags kept, from E. coli Rosetta (DE3)
T1 sequence (Q9SJM3 1-949): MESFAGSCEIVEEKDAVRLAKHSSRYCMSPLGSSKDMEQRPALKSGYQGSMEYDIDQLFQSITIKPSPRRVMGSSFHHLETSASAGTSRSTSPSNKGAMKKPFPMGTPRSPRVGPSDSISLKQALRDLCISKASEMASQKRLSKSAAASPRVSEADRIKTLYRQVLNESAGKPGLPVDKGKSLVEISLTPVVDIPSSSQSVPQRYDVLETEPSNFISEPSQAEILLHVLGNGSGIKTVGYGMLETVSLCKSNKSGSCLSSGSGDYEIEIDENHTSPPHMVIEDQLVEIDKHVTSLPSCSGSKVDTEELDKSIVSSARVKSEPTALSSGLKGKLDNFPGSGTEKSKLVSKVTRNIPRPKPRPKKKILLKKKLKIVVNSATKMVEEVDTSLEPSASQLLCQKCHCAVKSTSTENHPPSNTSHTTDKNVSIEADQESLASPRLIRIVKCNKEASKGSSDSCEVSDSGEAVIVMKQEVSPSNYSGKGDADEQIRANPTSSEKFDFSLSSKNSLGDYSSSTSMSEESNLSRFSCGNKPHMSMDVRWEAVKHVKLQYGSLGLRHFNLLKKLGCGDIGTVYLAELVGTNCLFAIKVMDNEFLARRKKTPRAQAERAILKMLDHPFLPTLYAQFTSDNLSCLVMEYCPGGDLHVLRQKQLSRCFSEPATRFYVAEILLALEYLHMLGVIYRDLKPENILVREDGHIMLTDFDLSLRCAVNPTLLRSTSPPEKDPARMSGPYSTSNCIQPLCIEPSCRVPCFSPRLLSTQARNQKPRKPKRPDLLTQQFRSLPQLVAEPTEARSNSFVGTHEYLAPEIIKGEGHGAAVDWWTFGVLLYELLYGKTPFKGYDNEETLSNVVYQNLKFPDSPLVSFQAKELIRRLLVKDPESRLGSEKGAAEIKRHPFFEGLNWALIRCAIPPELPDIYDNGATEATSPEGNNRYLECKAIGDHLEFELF
Kind of assay: in vitro phosphorylation of GST-PIN3CL, autoradiography. The assay is classed as biochemical. Particulars: MBP fusion; 100 µM ATP with [γ-32P]ATP, labelled compound; 5 mM MgCl2, pH 7.5, 30 °C, 1 h.

For assay [2], the target named is T2, KIPK (Arabidopsis thaliana, UniProt Q9LFA2).
T2 construct: gene KIPK1; GST fusion (PIP strips) or MBP fusion (phosphorylation), tags kept, from E. coli Rosetta (DE3)
T2 sequence (Q9LFA2 1-934): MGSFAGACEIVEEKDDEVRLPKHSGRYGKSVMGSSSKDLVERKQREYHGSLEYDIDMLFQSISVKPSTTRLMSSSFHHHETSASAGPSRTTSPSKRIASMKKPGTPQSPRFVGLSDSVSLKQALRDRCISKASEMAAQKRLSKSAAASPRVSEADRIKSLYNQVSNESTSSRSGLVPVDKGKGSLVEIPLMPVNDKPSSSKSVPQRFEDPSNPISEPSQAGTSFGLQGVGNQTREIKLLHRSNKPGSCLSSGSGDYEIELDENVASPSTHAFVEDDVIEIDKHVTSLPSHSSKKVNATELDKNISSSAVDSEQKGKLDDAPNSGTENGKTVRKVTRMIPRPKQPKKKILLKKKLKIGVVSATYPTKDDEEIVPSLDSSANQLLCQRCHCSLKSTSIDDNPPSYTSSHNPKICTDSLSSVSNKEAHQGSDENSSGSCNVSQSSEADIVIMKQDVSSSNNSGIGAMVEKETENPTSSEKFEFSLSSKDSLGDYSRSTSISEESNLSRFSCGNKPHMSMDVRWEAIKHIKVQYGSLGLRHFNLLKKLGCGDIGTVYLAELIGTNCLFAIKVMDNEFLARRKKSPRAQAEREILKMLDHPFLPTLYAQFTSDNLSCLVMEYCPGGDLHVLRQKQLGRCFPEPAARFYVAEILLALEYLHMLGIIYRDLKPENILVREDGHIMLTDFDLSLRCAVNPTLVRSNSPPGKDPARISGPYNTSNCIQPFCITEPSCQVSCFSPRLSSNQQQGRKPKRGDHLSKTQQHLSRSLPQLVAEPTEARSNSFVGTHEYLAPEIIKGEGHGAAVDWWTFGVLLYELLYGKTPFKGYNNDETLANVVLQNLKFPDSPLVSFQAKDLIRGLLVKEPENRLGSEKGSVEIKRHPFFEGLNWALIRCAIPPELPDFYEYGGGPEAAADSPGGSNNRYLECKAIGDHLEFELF
Described as above. The assay is classed as biochemical. The note with it: MBP fusion; 100 µM ATP with [γ-32P]ATP, labelled compound; 5 mM MgCl2, pH 7.5, 30 °C, 1 h.

Assay [3] addresses T3, KIPKL2 (Arabidopsis thaliana, UniProt Q9LZS4).
T3 construct: gene AGC1-8; GST fusion (PIP strips) or MBP fusion (phosphorylation), tags kept, from E. coli Rosetta (DE3)
T3 sequence (Q9LZS4 1-926): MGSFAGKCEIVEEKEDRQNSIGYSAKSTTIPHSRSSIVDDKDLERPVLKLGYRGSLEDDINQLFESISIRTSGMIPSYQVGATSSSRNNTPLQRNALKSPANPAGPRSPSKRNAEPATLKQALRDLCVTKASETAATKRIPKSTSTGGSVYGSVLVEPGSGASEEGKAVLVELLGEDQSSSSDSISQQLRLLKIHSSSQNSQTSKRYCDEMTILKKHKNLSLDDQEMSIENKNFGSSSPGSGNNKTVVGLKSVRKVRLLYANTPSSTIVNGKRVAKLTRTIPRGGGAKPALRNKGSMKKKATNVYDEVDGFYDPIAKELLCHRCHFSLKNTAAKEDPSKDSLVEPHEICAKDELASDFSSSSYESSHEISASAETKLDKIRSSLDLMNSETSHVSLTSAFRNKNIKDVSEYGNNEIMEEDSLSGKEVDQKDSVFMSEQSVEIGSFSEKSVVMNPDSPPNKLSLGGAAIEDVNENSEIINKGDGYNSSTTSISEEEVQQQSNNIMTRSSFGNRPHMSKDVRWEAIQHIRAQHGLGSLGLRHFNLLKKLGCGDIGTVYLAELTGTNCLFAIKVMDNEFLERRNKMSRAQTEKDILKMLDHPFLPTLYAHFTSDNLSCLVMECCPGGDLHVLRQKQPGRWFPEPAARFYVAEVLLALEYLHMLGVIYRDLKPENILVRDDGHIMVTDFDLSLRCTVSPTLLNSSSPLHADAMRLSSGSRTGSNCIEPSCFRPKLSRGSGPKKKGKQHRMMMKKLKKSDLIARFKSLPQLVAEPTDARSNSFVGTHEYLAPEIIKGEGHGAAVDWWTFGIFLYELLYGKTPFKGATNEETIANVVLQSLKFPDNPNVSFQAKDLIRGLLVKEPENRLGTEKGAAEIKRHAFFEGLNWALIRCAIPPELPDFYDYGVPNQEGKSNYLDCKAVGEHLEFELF
The description is as above. The class given is biochemical. The note with it: MBP fusion; 100 µM ATP with [γ-32P]ATP, labelled compound; 5 mM MgCl2, pH 7.5, 30 °C, 1 h.

The target in assay [4] is T4, PIN3 (Arabidopsis thaliana, UniProt Q9S7Z8).
T4 sequence (Q9S7Z8 1-640): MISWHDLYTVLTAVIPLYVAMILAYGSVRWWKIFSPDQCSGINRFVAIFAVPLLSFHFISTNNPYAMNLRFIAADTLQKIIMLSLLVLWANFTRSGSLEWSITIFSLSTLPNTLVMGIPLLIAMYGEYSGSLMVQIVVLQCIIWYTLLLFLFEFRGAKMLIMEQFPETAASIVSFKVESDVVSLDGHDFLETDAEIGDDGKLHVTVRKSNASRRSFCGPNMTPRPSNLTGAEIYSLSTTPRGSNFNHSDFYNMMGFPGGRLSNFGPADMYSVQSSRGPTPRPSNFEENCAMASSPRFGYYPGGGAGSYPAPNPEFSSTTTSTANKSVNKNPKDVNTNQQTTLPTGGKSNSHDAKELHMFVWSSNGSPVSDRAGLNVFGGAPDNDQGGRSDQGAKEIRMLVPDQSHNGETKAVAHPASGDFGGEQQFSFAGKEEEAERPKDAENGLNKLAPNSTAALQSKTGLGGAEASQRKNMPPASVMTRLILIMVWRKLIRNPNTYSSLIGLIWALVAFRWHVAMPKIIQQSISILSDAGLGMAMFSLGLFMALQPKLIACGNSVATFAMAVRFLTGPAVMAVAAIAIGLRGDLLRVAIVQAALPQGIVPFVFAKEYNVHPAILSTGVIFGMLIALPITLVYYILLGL
In words: [3H]-IAA efflux from Xenopus oocytes. The class given is cell-based. Particulars: co-expressed with KIPK or KIPKL1; about 1 µM internal [3H]-IAA, labelled compound; outside pH 7.4, 21 °C.

Turning to `Nc1ncnc2c1ncn2[C@@H]1O[C@H](COP(=O)(O)OP(=O)(O)OP(=O)(O)O)[C@@H](O)[C@H]1O` [ATP], the “in vitro phosphorylation of GST-PIN3CL, autoradiography” value in assay [1] was “MBP-KIPK and MBP-KIPKL1 phosphorylated the GST- (glutathione-S-transferase-) tagged PIN3 cytoplasmic loop”; in assay [2], “MBP-KIPK and MBP-KIPKL1 phosphorylated the GST- (glutathione-S-transferase-) tagged PIN3 cytoplasmic loop”; in assay [3], “GST-PIN3CL phosphorylation by MBP-KIPKL2 was reproducibly comparatively less efficient”.

For the molecule `O=C(O)Cc1c[nH]c2ccccc12` [IAA], the “[3H]-IAA efflux from Xenopus oocytes” value in assay [4] was “PIN3-mediated auxin efflux was activated when PIN3 was co-expressed with KIPK or KIPKL1”.
